Test [1] concerns HL60 cells. The test can be described thus: Cytofluorimetric analysis of cell surface markers. It is filed as cell-based, human. As to conditions: HL60, RA 1 μM, 4 days. From the text: (§1) The induction of CD11b is associated with granulocytic differentiation, CD14 is considered a monocytic specific antigen and CD15 is a myelomonocytic antigen. Simultaneous induction of CD14 and CD11b relates to monocytic differentiation. […] In nevirapine-treated NB4 and HL60 cells, a strong induction of expression of CD15, and, to a lesser degree, CD11b and CD14 markers was detected.

Test [2] relates to NB4 cells. Nature of the test: Cytofluorimetric analysis of cell surface markers. The class given is cell-based, human. As to conditions: NB4, RA 1 μM, 4 days.
Text: as §1

Test [3] deals with NB4 cells. Nature of the test: Growth, viable cell count. It is filed as cell-based, human. As to conditions: NB4, RA 1 μM, 4 days.
In test [4] the test system is HL60 cells. The test can be described thus: Growth, viable cell count. It is filed as cell-based, human. Conditions: HL60, RA 1 μM, 4 days.
Test [5] has as its system NB4 cells. The test can be described thus: NBT dye reduction assay. As to conditions: NB4, RA 1 μM, 4 days. It is filed as cell-based, human.
The test system of test [6] is HL60 cells. The test can be described thus: NBT dye reduction assay. The class given is cell-based, human. As to conditions: HL60, RA 1 μM, 4 days.
The test system of a further test is early mouse embryos. Nature of the test: Early mouse embryo cultures from in vitro fertilization (IVF) assays. Conditions: added to cultures of IVF embryos; preliminary studies.
For a further test, the system named is F9 teratocarcinoma cells. The test can be described thus: Cell proliferation by cell counting. The class given is cell-based, murine. As to conditions: efavirenz 10 and 20 μM, dose-dependent, vs non-exposed cells. The procedure:
(§2) NIH/3T3 embryo fibroblasts and F9 teratocarcinoma cells were cultured in DMEM containing 10-20% fetal serum and two concentrations of efavirenz, i.e. 10 and 20 μM, diluted from a stock solution (10 mM) in 100% DMSO. Cells were plated at a density of 2-5×10^4 in 35 mm Petri dishes and exposed to efavirenz 5-6 hours later. Samples were withdrawn at specific times and cells were counted in efavirenz-exposed compared to parallel non-exposed cell cultures.

The subject of test [7] is NIH/3T3 embryo fibroblasts. Nature of the test: Cell proliferation by cell counting. The class given is cell-based, murine. As to conditions: efavirenz 10 and 20 μM, dose-dependent, vs non-exposed cells. The procedure:
as §2

The subject of test [8] is Saos-2 osteosarcoma cells. Nature of the test: Cell proliferation by cell counting. As to conditions: 20 μM efavirenz. The class given is cell-based, human. The protocol:
Samples were withdrawn at specific times and cells were counted in nevirapine-exposed and control (DMSO-exposed) cultures. […] Saos-2 osteosarcoma cells were the most slowly responsive type, and only after 5 days of exposure did the growth rate begin to decrease compared to control cultures.
(§3) The effect of efavirenz was further tested in human HeLa adenocarcinoma and Saos-2 osteosarcoma cells. Both cell lines were cultured in the conditions described above (Example 6). To establish if prolonged exposure to the drug improved the effectiveness of growth inhibition, both cell lines were exposed to efavirenz in two subsequent cycles: during the 1st cycle cells were continuously exposed to 20 μM efavirenz for 5 days; cells were then diluted, reseeded again and the 2nd cycle exposure was initiated the following day with fresh drug. […] The inhibitory effect was time-dependent, since in both HeLa and Saos-2 cultures, the 1st cycle of exposure (5 days) yielded a 1.6- and 1.5-fold reduction, respectively, whereas a 5- and 4-fold reduction was obtained in the 2nd cycle (carried out until day 20 from the onset of exposure).

Test [9] concerns HeLa adenocarcinoma cells. Nature of the test: Cell proliferation by cell counting. Conditions: 20 μM efavirenz. It is filed as cell-based, human. The procedure: as §3
In a further test the test system is Morris 3924A hepatoma. The test can be described thus: Morris 3924A rat hepatoma in vivo. Conditions: efavirenz 1 mg/rat/day from day of inoculation; two treated rats; controls died at 27th day. The procedure: Rat strain: ACI/T inbred (about 180 gr)
Tumor: Morris 3924A hepatoma is a fast-growing tumor which develops in inbred ACI/T animals. Three weeks after inoculation the tumor size is about 10 cm^3.
Preparation of tumor cells: hepatoma tumor cells are prepared from the animal about two weeks after inoculation. The tumor is surgically removed from the animal, separated from connective and necrotic tissues and minced in small pieces. Tumor fragments are then suspended in sterile physiological solution and inoculated in the internal site of one thigh using a 20 ml-syringe with a large size needle. Routinely 0.5 ml of cell suspension are injected. The success rate of tumor implantation is nearly 99%.
On the eleventh day, hepatoma cells were inoculated subcutaneously in pre-treated and in three non-treated control rats.
Procedures and Results: Morris hepatoma cells were inoculated in 4 rats ([…]). The same day, treatment with efavirenz was initiated in two of them by injecting 1 mg/rat/day.

Setting [10] is: 2nd cycle (until day 20 from onset of exposure).

The record followed here is patent US10507207B2, “Non-nucleosidic inhibitors of reverse transcriptase as antagonists of cell proliferation and inducers of cell differentiation” (ISTITUTO SUPERIORE DI SANITA, priority 2001, dated 2019).

Turning to `CC1=C(/C=C/C(C)=C/C=C/C(C)=C/C(=O)O)C(C)(C)CCC1` [RA, retinoic acid], the “CD11b mean fluorescence intensity” value in the test with HL60 cells [1] was determined as 15.3 AU; in the test on NB4 cells [2] it was 53.7 AU. The “CD14 mean fluorescence intensity” value in the test on HL60 cells [1] is listed as 23.7 AU; in the test on NB4 cells [2], 19.1 AU. Besides, the “CD15 mean fluorescence intensity” value turned out to be 609.7 AU in the test on HL60 cells [1] and 421.7 AU in the test on NB4 cells [2]. Also, the results for the “Viable cells N^0 × 10^5” value with NB4 cells [3] and in the test on HL60 cells [4] were 1.4 ± 0.1 × 10^5 and 6.5 ± 0.9 × 10^5, respectively. The “NBT+ (%)” value stood at 80.6 ± 4.5% in the test with NB4 cells [5] and 31.2 ± 1.4% in the test with HL60 cells [6].

With `O=C1Nc2ccc(Cl)cc2[C@@](C#CC2CC2)(C(F)(F)F)O1` [efavirenz, (−)-6-chloro-4-cyclopropylethynyl-4-trifluoromethyl-1,4,-dihydro-2H-3,1-benzoxazine-one], the “development of early mouse embryos” value with early mouse embryos is “early and effective developmental arrest”. Further, the rate of proliferation result (in the test on F9 teratocarcinoma cells; in test [7]) was “decreases the rate of proliferation” each time. Moreover, the “reduction in the rate of cell growth” value is listed as 1.5 fold in [8] (1st cycle of exposure (5 days)), 4 fold in test [8] (setting [10]), 1.6 fold in test [9] (1st cycle of exposure (5 days)) and 5 fold in test [9] (setting [10]). Also, the “tumor development in treated rats” value in the test on Morris 3924A hepatoma was “only one of two treated animals developed a tumor of markedly smaller size, whereas the other remained totally healthy”.
